Assay results reported in publication PMC4527730, “A Pan-GTPase Inhibitor as a Molecular Probe” (PLoS ONE, 2015).

Columns and labels:
[1] = system: U937 FPRΔST cells; assay: Cytotoxicity (CellTiter-Glo); type: cell-based; details: up to 100 µM; 24 h and 1 h
Experimental: (§1) S3 Fig. Cytotoxicity of 1 and analogues. […]
(§2) µM over the experimental time frame. Compounds tested in the U937ΔST cells for 24 h (A) and (B), and for 1 h (C). Compounds tested in SCC-12F cells for 24 h (D) and (E), and for 3 h (F-I). Data are reported as ratios of luminescence to that of the DMSO treated control.
(§3) (1 picture or pasted object on this page, not shown here)
(§4) FITC-LDV dissociation assay
(§5) The dissociation kinetics of FITC-LDV was measured by flow cytometry following the addition of 100-fold excess of non-fluorescent LDV. (The kinetic constants obtained are the same within experimental error whether adding 100-fold or 200-fold excess non-fluorescent LDV). The fluorescence decrease was recorded (see B in S2 Fig.). For the resting state, when a fluorescence plateau was reached after the addition of LDV-FITC, LDV was added to the cell suspension. For the high affinity state, when the fluorescence reached equilibrium after the sequential addition of LDV-FITC and N-formyl peptide, LDV was added. To study the effect of a compound, LDV was added at the time point when the fluorescence approached a […]. The fluorescence decrease curve was fitted to Equation 2 to obtain the dissociation rate constant koff. […] Therefore the binding affinity can also be estimated by comparing the measured koff. […]

[2] = system: SCC-12F cells; assay: Cytotoxicity (CellTiter-Glo); type: cell-based; details: up to 100 µM; 24 h and 3 h
Experimental: as §1, §2, §3, §4, §5

SMILES: CC1(C)Cc2c(sc(NC(=S)NC(=O)c3ccccc3)c2C(=O)O)CO1 [Compound 1]
- toxicity [1]: did not show toxicity
- toxicity [2]: did not show toxicity
